No end group written: not given here.
Legend:
Influenza A H1N1 = format: cell-based; conditions: 50 μM; tracheo-bronchial HAE
SARS-CoV-2 [1] = assay: Treatment of patients infected by SARS-CoV-2 (RT-qPCR of nasopharyngeal swabs); format: in vivo, human; conditions: for SARS-CoV-2 negative patients/Total: chloroquine
Procedure: Human studies were conducted in accordance with the Declaration of Helsinki. […] The peptide was administered subcutaneously. The presence of SARS-CoV-2 viral RNA was determined by RT-qPCR (Roche) in nasopharyngeal swabs of the patients every 48 or 96 hours during 15 days. Four groups were formed, each with 20 patients, all in the initial stage of the disease and with similar characteristics. Group 1 patients received the most frequently used treatment in COVID-19 therapy based on Kaletra (Lopinavir/Ritonavir), chloroquine, and Heberon™ Alpha R (IFN α2b). Group 2 received this treatment, plus the peptide identified in the Sequence Listing as SEQ ID NO: 1. The latter was administered subcutaneously, at 2 mg/Kg of weight for 5 days. Group 3 patients received treatment based on Kaletra, chloroquine and a combined formulation of intramuscular IFN a2b (3.0 million international units, MIU) and IFN y (0.5 MIU). Patients in group 4 received the same treatment as Group 3, plus the peptide identified in the Sequence Listing as SEQ ID NO: 1 (2 mg/Kg of weight), subcutaneously for 5 days.

[2] = target: T1, Dengue 2 virus capsid protein (Dengue virus type 2, UniProt P29990); assay: BIACORE surface plasmon resonance interaction with immobilized peptide; format: binding
T1 construct: with the Dengue 2 virus capsid protein
T1 sequence (P29990 1-100 limits assumed): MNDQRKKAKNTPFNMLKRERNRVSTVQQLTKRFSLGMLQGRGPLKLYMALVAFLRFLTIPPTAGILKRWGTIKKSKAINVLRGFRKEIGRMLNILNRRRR

pAb anti-SEQ ID NO: 1 = assay: as above; format: binding, rabbit
[3] = system: herpes simplex virus type 1 (HSV-1); assay: HSV-1 replication in primary explants of human nasal mucosa (qPCR); format: cell-based; conditions: 100 μM, 36 hours
Procedure: The replication of herpes simplex virus type 1 (HSV-1) was performed in primary explants of human nasal mucosa, according to Glorieux et al. (Glorieux et al. 2011, PLoS ONE, 6(7): e22160, doi: 10.1371/journal.pone.0022160). […] Afterwards, the cultures were washed and kept at 37° C. and 5% CO2 for 36 hours, in presence of the peptides in culture medium. The cultures were harvested, and HSV-1 was quantified by qPCR. The percentages of viral inhibition ranged from 70 to 92% in presence of the peptides (Table 5).

SARS-CoV-2 [4] = conditions: 72 h, 100 μM
[5] = system: Mebus strain of bovine coronavirus; assay: Inhibition of bovine coronavirus replication in MDBK cells (CPE, viral RNA RT-qPCR); format: cell-based; conditions: MOI 0.01, 120 hours
Procedure: To evaluate the antiviral effect of this peptide, bovine kidney cells known as MDBK were seeded in 24-well plates, at 280,000 cells per well, in DMEM culture medium with 10% fetal calf serum (FBS). The plates were incubated in a humid environment at 37° C. and 5% CO2. […] Once this treatment time elapsed, the culture medium was removed and the cells were infected with the Mebus strain of bovine coronavirus for 1 hour, in 200 μL of serum-free DMEM medium, at a multiplicity of infection (MOI) of 0.01 in a humid environment at 37° C. and 5% CO2. Subsequently, the volume of each well was brought up to 1 mL with serum-free DMEM medium in the presence of the peptide. Incubation for 120 hours was carried out, and cell-culture viability was evaluated by the method of metabolic reduction of MTT. To do this, the culture medium was removed. Two-hundred microliters of MTT were added to each well, and the plate was incubated for 2 to 4 hours at 37° C., 5% CO2 and 95% humidity. Subsequently, 300 μL of isobutyl alcohol were added and the plate was shaken for 1 hour. As an alternative to the MTT method, cells were stained with crystal violet (0.1%). Finally, the absorbance in each well was determined at 570 nm in a plate reader (Amersham). The antiviral effect was expressed as percent of inhibition of the cytopathic effect (CPE) (FIG. 1A) and inhibition of viral RNA (FIG. 1B) by RT-qPCR.

Dengue 2 virus = Dengue 2 virus replication in primary cultures of lung cells (PFU in VeroE6); format: cell-based; conditions: 100 μM, 48 hours
Procedure: The cultures were treated with the peptides for 2 or 24 hours, at concentrations of 0.01 to 100 μM before viral challenge. The medium was discarded and the cells were infected with Dengue 2 virus, at an MOI of 10 for 2 hours at 37° C. and 5% CO2. The virus was eliminated, a wash was then performed and the cultures were treated again with peptides in DMEM medium, and incubated for 48 hours at 37° C. and 5% CO2. Subsequently, the cultures were collected to assess viral performance on VeroE6 cells. For this, the cells were seeded in 24-well plates and when they reached confluence they were infected with serial 10-fold dilutions of the supernatants, incubated for 1 hour at 37° C. and 5% CO2. Next, a wash was carried out with PBS, and a layer of agar in 2× DMEM (1:1) added. The layer was allowed to solidify and incubated for 48 hours at 37° C. 5% CO2. The plates were stained with crystal violet, for the determination of the number of PFUs. The peptides inhibited between 68 and 88% of viral replication (Table 5).

SARS-CoV-2 [6] = assay: Prophylaxis in healthy contacts of COVID-19 patients (RT-qPCR of nasopharyngeal swabs); format: in vivo, human; conditions: Group II, intranasal drops 14 μg/mL daily for 6 days
Procedure: Healthy individuals, contacts of COVID-19 patients, were included in this study. Two groups of 25 healthy individuals exposed to a similar risk of contagion (Group I and Group II) were analyzed. Group II was treated daily, for 6 days, with the peptide identified in the Sequence Listing as SEQ ID NO: 1 as intranasal drops, at a concentration of 14 μg/mL. Nasopharyngeal swab samples were collected for SARS-CoV-2 detection by RT-qPCR (Roche). Sampling was carried out at the beginning of the study and 7 days after it began.

RVTQMNLNDRLASLYDKV [SEQ ID NO: 1] was tested, and the “Influenza A H1N1 Inhib. %” value (Influenza A H1N1) was 86%, the “SARS-CoV-2 negative patients/Total” value (SARS-CoV-2 [1]; day 2, Groups 3/4: Kaletra, IFN a2b + IFN y without/with peptide 2 mg/Kg s.c. 5 days) was 0/20 and the “SARS-CoV-2 negative patients/Total” value (SARS-CoV-2 [1]; day 2 after treatment onset, Groups 1/2: Kaletra, Heberon Alpha R without/with peptide 2 mg/Kg s.c. 5 days) was 0/20. The “SARS-CoV-2 negative patients/Total” value (SARS-CoV-2 [1]; day 4, Groups 1/2: Kaletra, Heberon Alpha R without/with peptide 2 mg/Kg s.c. 5 days) was 16/20, the “SARS-CoV-2 negative patients/Total” value (SARS-CoV-2 [1]; day 4, Groups 3/4: Kaletra, IFN a2b + IFN y without/with peptide 2 mg/Kg s.c. 5 days) was 17/20 and the “SARS-CoV-2 negative patients/Total” value (SARS-CoV-2 [1]; day 6, Groups 1/2: Kaletra, Heberon Alpha R without/with peptide 2 mg/Kg s.c. 5 days) was 20/20. The “SARS-CoV-2 negative patients/Total” value (SARS-CoV-2 [1]; day 6, Groups 3/4: Kaletra, IFN a2b + IFN y without/with peptide 2 mg/Kg s.c. 5 days) was 20/20, the “SARS-CoV-2 negative patients/Total” value (SARS-CoV-2 [1]; day 10, Groups 1/2: Kaletra, Heberon Alpha R without/with peptide 2 mg/Kg s.c. 5 days) was 20/20 and the “SARS-CoV-2 negative patients/Total” value (SARS-CoV-2 [1]; day 10, Groups 3/4: Kaletra, IFN a2b + IFN y without/with peptide 2 mg/Kg s.c. 5 days) was 20/20. The “SARS-CoV-2 negative patients/Total” value (SARS-CoV-2 [1]; day 14, Groups 1/2: Kaletra, Heberon Alpha R without/with peptide 2 mg/Kg s.c. 5 days) was 20/20, the “SARS-CoV-2 negative patients/Total” value (SARS-CoV-2 [1]; day 14, Groups 3/4: Kaletra, IFN a2b + IFN y without/with peptide 2 mg/Kg s.c. 5 days) was 20/20 and the “SARS-CoV-2 negative patients/Total” value (SARS-CoV-2 [1]; day 20, Groups 1/2: Kaletra, Heberon Alpha R without/with peptide 2 mg/Kg s.c. 5 days) was 20/20. For the same sequence, the “SARS-CoV-2 negative patients/Total” value (SARS-CoV-2 [1]; day 20, Groups 3/4: Kaletra, IFN a2b + IFN y without/with peptide 2 mg/Kg s.c. 5 days) was 20/20, the “patients negative for SARS-CoV-2” value (SARS-CoV-2 [1]; fourth day after treatment onset, Group 2 (peptide + Kaletra, chloroquine, Heberon Alpha R)) was 80% and the “patients negative for SARS-CoV-2” value (SARS-CoV-2 [1]; fourth day after treatment onset, Group 4 (peptide + Kaletra, chloroquine, IFN a2b + IFN y)) was 85%. The “patients negative for SARS-CoV-2” value (SARS-CoV-2 [1]; sixth day after treatment onset, Group 2) was 100%, the “patients negative for SARS-CoV-2” value (SARS-CoV-2 [1]; sixth day after treatment onset, Group 4) was 100% and the Kd [2] was 1.67 nM. The Rmax [2] was 409 RU, the interaction [2] was “concentration dependent interaction” and the kd [2] was 0.000413 s⁻¹. The kon ([2]; read-out: ka) was 247000 M⁻¹ s⁻¹, the Kd (pAb anti-SEQ ID NO: 1) was 115 nM and the ka (pAb anti-SEQ ID NO: 1) was 2750 M⁻¹ s⁻¹. For the same sequence, the kd (pAb anti-SEQ ID NO: 1) was 0.000318 s⁻¹, the “Herpes simplex HSV-1 Inhib. %” value [3] was 92% and the “Bronchial HAE Inhibition %” value (SARS-CoV-2 [4]) was 84%. The “Nasal HAE Inhibition %” value (SARS-CoV-2 [4]) was 74%, the “antiviral effect on bovine coronavirus infection (inhibition of CPE, viral RNA)” value [5] was “exerts an antiviral effect” and the “Dengue 2 Inhib. %” value (Dengue 2 virus) was 81%. The “SARS-CoV-2 positive cases (%)” value (SARS-CoV-2 [6]; Day 7) was 3.9%, the “SARS-CoV-2 positive cases/Total” value (SARS-CoV-2 [6]; Day 7) was 1/25 and the “SARS-CoV-2 positive cases (%)” value (SARS-CoV-2 [6]; Day of onset) was 0%. For the same sequence, the “SARS-CoV-2 positive cases/Total” value (SARS-CoV-2 [6]; Day of onset) was 0/25.

Source: US20250282828A1, “PEPTIDES FOR THE TREATMENT OF RESPIRATORY INFECTIONS OF VIRAL ORIGIN” (CENTRO DE INGENIERÍA GENÉTICA Y BIOTECNOLOGÍA, priority 2020, published 2025)
